Measurements: ChEMBL document CHEMBL1201862, “PubChem BioAssay data set” (2004)
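Step 1: Grow cells in 96-well plates. Step 2: Expose to compound for 48 hours at 5 concentrations. Step 3: Interpolate endpoints linearly; if unreached, use highest concentration. Abbreviation: GI50, concentration required for 50% inhibition of growth.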 Activity calls are given as the source filed them. No stated cut-off is given here; in the data, active = GI50 up to about 1.1 µM and inactive = higher.

Legend:
Experiment in all cases: inhibition of tumour cell growth, NCI panel, 48 h
[1] = test system: SK-MEL-28
[2] = test system: U-251
[3] = test system: IGROV-1
[4] = test system: OVCAR-5
[5] = test system: SK-MEL-2
[6] = test system: SNB-78
[7] = test system: SW-620
[8] = test system: DLD-1
[9] = test system: NCI-H226
[10] = test system: HCT-116
[11] = test system: CCRF-CEM
[12] = test system: UO-31
[13] = test system: HOP-62
[14] = test system: UACC-62
[15] = test system: NCI-H460
[16] = test system: HCC 2998
[17] = test system: DMS-114
[18] = test system: TK-10
[19] = test system: SF-539
[20] = test system: SNB-19
[21] = test system: Malme-3M
[22] = test system: MOLT-4
[23] = test system: SF-295
[24] = test system: OVCAR-8
[25] = test system: XF498
[26] = test system: KM12
[27] = test system: M19-MEL
[28] = test system: A549
[29] = test system: HT-29
[30] = test system: RXF 393
[31] = test system: COLO 205
[32] = test system: SF-268
[33] = test system: HOP-92
[34] = test system: SR
[35] = test system: OVCAR-3
[36] = test system: NCI-H23
[37] = test system: OVCAR-4
[38] = test system: SNB-75
[39] = test system: NCI-H522
[40] = test system: SK-MEL-5
[41] = test system: LOX IMVI
[42] = test system: EKVX
[43] = test system: CAKI-1
[44] = test system: SK-OV-3
[45] = test system: K562
[46] = test system: M14
[47] = test system: DMS-273
[48] = test system: HL-60
[49] = test system: LXFL 529
[50] = test system: HOP-18
[51] = test system: ACHN
[52] = test system: UACC-257
[53] = test system: KM-20L2
[54] = test system: 786-0
[55] = test system: SN12C
[56] = test system: HCT-15
[57] = test system: A498
[58] = test system: RPMI-8226

C=CCN1C(=O)NC(=O)/C(=C/c2c3ccccc3cc3ccccc23)C1=O
GI50 [1]: 22.4 µM (inactive)
GI50 [2]: 16.7 µM (inactive)
GI50 [3]: > 10 µM (inactive)
GI50 [4]: 20.5 µM (inactive)
GI50 [5]: 19.6 µM (inactive)
GI50 [6]: 21.1 µM (inactive)
GI50 [7]: 35.7 µM (inactive)
GI50 [8]: 18.9 µM (inactive)
GI50 [9]: 26.3 µM (inactive)
GI50 [10]: 17.1 µM (inactive)
GI50 [11]: 26.3 µM (inactive)
GI50 [12]: 20.6 µM (inactive)
GI50 [13]: 17.3 µM (inactive)
GI50 [14]: 18 µM (inactive)
GI50 [15]: 19.1 µM (inactive)
GI50 [16]: 14.8 µM (inactive)
GI50 [17]: 19.1 µM (inactive)
GI50 [18]: 20 µM (inactive)
GI50 [19]: 16.7 µM (inactive)
GI50 [20]: 21.8 µM (inactive)
GI50 [21]: 18.6 µM (inactive)
GI50 [22]: 17.9 µM (inactive)
GI50 [23]: 17.4 µM (inactive)
GI50 [24]: 22.4 µM (inactive)
GI50 [25]: 21.8 µM (inactive)
GI50 [26]: 16.2 µM (inactive)
GI50 [27]: 34.4 µM (inactive)
GI50 [28]: 21 µM (inactive)
GI50 [29]: 20.7 µM (inactive)
GI50 [30]: 15.3 µM (inactive)
GI50 [31]: 19.9 µM (inactive)
GI50 [32]: 24.5 µM (inactive)
GI50 [33]: 20.4 µM (inactive)
GI50 [34]: 23.9 µM (inactive)
GI50 [35]: 18.9 µM (inactive)
GI50 [36]: > 10 µM (inactive)
GI50 [37]: 22.2 µM (inactive)
GI50 [38]: 21.3 µM (inactive)
GI50 [39]: 20.2 µM (inactive)
GI50 [40]: > 10 µM (inactive)
GI50 [41]: 27.6 µM (inactive)
GI50 [42]: 25.5 µM (inactive)
GI50 [43]: 19.5 µM (inactive)
GI50 [44]: 29.9 µM (inactive)
GI50 [45]: 20.8 µM (inactive)
GI50 [46]: 16.2 µM (inactive)
GI50 [47]: 20.8 µM (inactive)

COc1ccc(/C=N/NC(=O)c2sc(=S)n(-c3ccccc3)c2N)cc1
GI50 [1]: 33.1 µM (inactive)
GI50 [2]: 66.2 µM (inactive)
GI50 [3]: > 100 µM (inactive)
GI50 [4]: > 100 µM (inactive)
GI50 [48]: > 100 µM (inactive)
GI50 [49]: 51.2 µM (inactive)
GI50 [7]: > 100 µM (inactive)
GI50 [8]: > 100 µM (inactive)
GI50 [9]: > 100 µM (inactive)
GI50 [10]: 91.6 µM (inactive)
GI50 [11]: > 100 µM (inactive)
GI50 [12]: > 100 µM (inactive)
GI50 [13]: 22.2 µM (inactive)
GI50 [50]: 39.4 µM (inactive)
GI50 [14]: 89.1 µM (inactive)
GI50 [15]: 6.04 µM (inactive)
GI50 [16]: 73.5 µM (inactive)
GI50 [18]: 7.14 µM (inactive)
GI50 [19]: 6.92 µM (inactive)
GI50 [20]: 28.1 µM (inactive)
GI50 [51]: 20.7 µM (inactive)
GI50 [22]: > 100 µM (inactive)
GI50 [23]: 19.8 µM (inactive)
GI50 [24]: 44.7 µM (inactive)
GI50 [26]: 7.85 µM (inactive)
GI50 [27]: > 100 µM (inactive)
GI50 [28]: > 100 µM (inactive)
GI50 [29]: 73.8 µM (inactive)
GI50 [31]: > 100 µM (inactive)
GI50 [32]: 21.4 µM (inactive)
GI50 [33]: 9.51 µM (inactive)
GI50 [34]: > 100 µM (inactive)
GI50 [35]: 83.9 µM (inactive)
GI50 [36]: > 100 µM (inactive)
GI50 [38]: 1.6 µM (inactive)
GI50 [39]: 42.1 µM (inactive)
GI50 [40]: 71.4 µM (inactive)
GI50 [52]: > 100 µM (inactive)
GI50 [44]: 11.2 µM (inactive)
GI50 [45]: 1.48 µM (inactive)

Cc1ccc(/C=C/C(=O)c2sc(C(N)=S)nc2C)cc1
GI50 [1]: > 100 µM (inactive)
GI50 [53]: > 100 µM (inactive)
GI50 [2]: > 100 µM (inactive)
GI50 [3]: > 100 µM (inactive)
GI50 [4]: > 100 µM (inactive)
GI50 [48]: > 100 µM (inactive)
GI50 [5]: > 100 µM (inactive)
GI50 [6]: > 100 µM (inactive)
GI50 [54]: > 100 µM (inactive)
GI50 [7]: > 100 µM (inactive)
GI50 [8]: > 100 µM (inactive)
GI50 [9]: > 100 µM (inactive)
GI50 [11]: > 100 µM (inactive)
GI50 [12]: > 100 µM (inactive)
GI50 [13]: > 100 µM (inactive)
GI50 [50]: > 100 µM (inactive)
GI50 [14]: > 100 µM (inactive)
GI50 [55]: > 100 µM (inactive)
GI50 [56]: > 100 µM
GI50 [15]: > 100 µM (inactive)
GI50 [16]: > 100 µM (inactive)
GI50 [18]: > 100 µM (inactive)
GI50 [19]: > 100 µM (inactive)
GI50 [21]: > 100 µM (inactive)
GI50 [51]: > 100 µM (inactive)
GI50 [22]: > 100 µM (inactive)
GI50 [23]: > 100 µM (inactive)
GI50 [57]: > 100 µM (inactive)
GI50 [24]: > 100 µM (inactive)
GI50 [26]: > 100 µM (inactive)
GI50 [27]: > 100 µM (inactive)
GI50 [28]: > 100 µM (inactive)
GI50 [29]: > 100 µM (inactive)
GI50 [30]: > 100 µM (inactive)
GI50 [31]: > 100 µM (inactive)
GI50 [32]: > 100 µM (inactive)
GI50 [33]: > 100 µM (inactive)
GI50 [35]: > 100 µM (inactive)
GI50 [36]: > 100 µM (inactive)
GI50 [38]: > 100 µM (inactive)
GI50 [39]: > 100 µM (inactive)
GI50 [58]: > 100 µM (inactive)
GI50 [40]: 45.8 µM (inactive)
GI50 [41]: > 100 µM (inactive)
GI50 [42]: > 100 µM (inactive)
GI50 [43]: > 100 µM (inactive)
GI50 [52]: > 100 µM (inactive)
GI50 [44]: > 100 µM (inactive)
GI50 [45]: > 100 µM (inactive)
GI50 [47]: > 100 µM (inactive)
